Molecules are shown by their SMILES. Where “and” joins values, the source holds several entries; their conditions need not be identical. Equal values may be shown once.

In general, ED50 refers to the dose that gives a 50% effect, or the effect in half of the subjects. A high value points to weaker potency. Usually IC50 stands for the concentration needed to halve the response being measured.

In series [1] the test system is gastric acid secretion. The series can be described thus: Inhibition of gastric acid secretion in pylorus-ligated rats (Shay rat). Format: in vivo, male Wistar rats. The note with it: iv, 2 h, i.v., 5 min before pylorus ligature, volume or acid output reduced by 50%. Here is the method:
(§1) The methods used have the objective of confirming the selectivity of the antimuscarinic acitivity. Those substances which are selected on the basis of "in vitro" investigations are tested for:
2. inhibitory effect on gastric acid secretion in pylorous-ligated rats; and
2. Inhibition of secretion in rats
Increasing doses of the substance are injected intravenously into male Wistar rats (10 rats per group) 5 minutes before the ligature of the pylorus. The rats are killed 2 hours later and both the volume of gastric acid and also the "acid output" are determined by titration. The dosage of substance which reduces either the volume or the acid output by 50% is determined.

Series [2] has as its system heart rate. The series is described as follows: Heart rate increasing activity (tachycardia) in the conscious dog. Format: in vivo. The note with it: Canis lupus familiaris, iv; dose increasing heart rate by 50 beats per minute; conscious dogs; read-out: Tachycardia (dog) ED50. Here is the method:
as §1
1. tachycardiac effect in conscious dogs;
1. Heart rate increasing activity in the conscious dogs
The substances are injected intravenously and the heart rate is measured with the aid of a tachygraph. After a control period, increasing doses of the compound are administered in order to increase the heart rate. The next dose is injected when the effect of the preceding dose is no longer visible. […] Each substance is tested on 3 to 5 dogs.

In series [3] the target is T1, muscarinic receptors (heart) (Rattus norvegicus, UniProt P10980).
T1 construct: The whole heart is cut up with scissors; All the organs are then homogenised in a Potter apparatus; from tissue; host or cells: rat whole heart, homogenised (1:250)
T1 sequence (P10980 1-466): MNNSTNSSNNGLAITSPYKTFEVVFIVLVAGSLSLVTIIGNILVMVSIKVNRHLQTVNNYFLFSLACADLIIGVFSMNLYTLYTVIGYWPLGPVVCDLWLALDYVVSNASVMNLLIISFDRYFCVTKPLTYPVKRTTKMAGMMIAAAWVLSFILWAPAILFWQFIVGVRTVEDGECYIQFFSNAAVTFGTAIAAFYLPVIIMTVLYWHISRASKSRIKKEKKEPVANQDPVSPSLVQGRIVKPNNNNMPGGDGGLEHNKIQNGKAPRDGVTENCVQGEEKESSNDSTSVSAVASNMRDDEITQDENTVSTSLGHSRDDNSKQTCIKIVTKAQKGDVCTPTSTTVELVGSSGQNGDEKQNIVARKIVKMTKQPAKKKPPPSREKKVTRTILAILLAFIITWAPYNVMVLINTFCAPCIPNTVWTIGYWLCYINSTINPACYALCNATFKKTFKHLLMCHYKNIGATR
The series can be described thus: Receptor binding tests: inhibition of specific 3H-N-methylscopolamine binding, whole heart. The arrangement: species or system Sprague-Dawley rats. The note with it: whole heart homogenate 1:250; 0.3 nM 3H-NMS; 30° C., 45 min, pH 7.4. The protocol: (§2) B. Studies of binding to muscarinic receptors: determining the IC50 value
(§3) The organ donors are Sprague-Dawley rats weighing from 180-220 g. After the removal of the heart, stomach and cerebral cortex, all the other steps are carried out in ice-cold Hepes-HCl buffer (pH 7.4; 100 m molar NaCl, 10 m molar MgCl2). The whole heart is cut up with scissors. All the organs are then homogenised in a Potter apparatus. For the bonding test, the homogenised organs are diluted as follows:
(§4) The homogenised organs are incubated at a specific concentration of the radioligand and with a series of concentrations of the non-radioactive test substances in an Eppendorf centrifugal test tube at 30° C. Incubation lasts 45 minutes. The radioligand is 0.3 n molar ^3 H-N-methylscopolamine (^3 H-NMS). After incubation has been ended by centrifuging at 14,000 g, the radioactivity in the pellet is determined. It represents the sum of specific and non-specific binding of ^3 H-NMS. The proportion of non-specific binding is defined as the radioactivity which binds in the presence of 1 μmolar quinuclidinyl benzylate. Four measurements are made in each case. The IC50 values of the non-labeled test substances are determined graphically. They represent the concentration of test substance at which the specific binding of ^3 H-NMS to the muscarinic receptors in the various organs is inhibited by 50%.

Series [4] concerns the target muscarinic receptors (cerebral cortex). The series can be described thus: Receptor binding tests: inhibition of specific 3H-N-methylscopolamine binding, cerebral cortex. The arrangement: species or system Sprague-Dawley rats. The note with it: cerebral cortex homogenate 1:3000; 0.3 nM 3H-NMS; 30° C., 45 min, pH 7.4. Here is the method: as §2, §3, §4
Series [5] is described as follows: Stability of separated diastereoisomers (reversion into the original mixture). Format: physicochemical. The note with it: for stability in crystalline form: temperature below the melting point. From the text: The base-substituted condensed diazepinones of formula I according to the invention contain up to two independent chiral elements, including an asymmetric carbon atom in the side chain. The second chiral element is the acylated tricyclic moiety itself, which can occur in two mirror-image forms. The nature of the tricyclic compound determines whether the energy barrier for inversion at this center is so high that the individual isomers are stable at ambient temperature and capable of being isolated.
The title compound is prepared analogously to Example 2 from 5-(chloroacetyl)-5,10-dihydro-11H-dibenzo[b,e][1,4]diazepin-11-one and D,L-2-[(4-methyl-1-piperazinyl)methyl]-piperidine to give colorless crystals, mp. 200°-202° C. (acetonitrile/activated charcoal). According to thin layer chromatography (Polygram® SIL G/UV254; eluant: dichloromethane/ethyl acetate/cyclohexane/methanol/conc. ammonia 3.5:1.5:0.46: 0.46:0.06; RF approx. 0.25) it is a mixture of isomers in a quantity ratio of approximately 1:1. Preparative separation is carried out by the following method:
(a) By liquid chromatography (HPLC):
Mobile Phase: Methylene chloride/cyclohexane/methanol/conc. ammonia (200:210:40:0.5 v/v);
In each case, a solution (100 μl) of the diastereoisomer mixture (15.2 mg) is injected into the mobile phase (1 ml) and thus placing the substance (1.5 mg) on the column.
(b) By liquid chromatography on a Jobin-Yvon chromatospac Prep using Li Chroprep Si 60, 25-40 μm (Merck-Darmstadt, Art. 9390) under a pressure of 10 bar.

Turning to `CCN(CC)CC1CCCCN1CC(=O)N1c2ccccc2C(=O)Nc2cccnc21` (racemic) [A], the 50% effective dose (ED50) in series [1] was over 10 mg/kg. The ED (increase of 50 beats per minute) in series [2] came out at 0.103 mg/kg. Further, in series [3], the concentration for half-maximal inhibition (IC50) is 140 nM and 150 nM. `CN(CC1CCCCN1CC(=O)N1c2ccccc2C(=O)Nc2cccnc21)[C@H]1CC[C@H](O)CC1` (relative stereo) [K]: the results for the IC50 in series [4] and in series [3] were 1100 nM and 70 nM, respectively. Take `CN1CCN(CC2CCCCN2CC(=O)N2c3ccccc3NC(=O)c3ccccc32)CC1` (single isomer, unassigned) [Isomer I, 5,10-Dihydro-5-[[2-[(4-methyl-1-piperazinyl)methyl]-1-piperidinyl]-acetyl]-11H-dibenzo[b,e][1,4]diazepin-11-one]: the “stability in crystalline form” value in series [5] is “completely stable”. In addition, in series [5] (hplc mobile phase solution, ambient temperature, mobile phase methylene chloride/cyclohexane/methanol/conc. ammonia, read-out: reverts into the original mixture, t1/2), the half-life was under 216 h. Consider `CN1CCN(CC2CCCCN2CC(=O)N2c3ccccc3NC(=O)c3ccccc32)CC1` (single isomer, unassigned) [Isomer II, 5,10-Dihydro-5-[[2-[(4-methyl-1-piperazinyl)methyl]-1-piperidinyl]-acetyl]-11H-dibenzo[b,e][1,4]diazepin-11-one], for which the “stability in crystalline form” value in series [5] is listed as “completely stable”. As for `CN1CCN(CC(=O)N2c3ccccc3C(=O)Nc3cccnc32)CC1` [B], in series [1], the 50% effective dose (ED50) was found to be 0.4 mg/kg. In series [2], the ED (increase of 50 beats per minute) is 0.468 mg/kg. For the molecule `CN1C2CCC1CC(OC(=O)C(CO)c1ccccc1)C2` (centres unmarked) [C], the ED (increase of 50 beats per minute) in series [2] was 0.0077 mg/kg.

Turning to `CN(C)CC1CCCCN1CC(=O)N1c2ccccc2C(=O)Nc2cccnc21` (centres unmarked) [D], the IC50 was 1500 nM in series [4]; 150 nM and 130 nM in series [3]. For `CN(C)CCC1CCCCN1CC(=O)N1c2ccccc2C(=O)Nc2cccnc21` (centres unmarked) [E], the values for the IC50 in series [4] and in series [3] were 1300 nM and 170 nM, respectively. As for `CCN(CC)CC1CCCCN1CC(=O)N1c2ccccc2NC(=O)c2ccccc21` (centres unmarked) [F], the IC50 in series [4] was 750 nM and 1000 nM; in series [3], 150 nM and 100 nM. As for `CCN(CC)CC1CCCCN1CC(=O)N1c2ccccc2NC(=O)c2cscc21` (centres unmarked) [G], the IC50 in series [4] came out at 2200 nM; in series [3], 220 nM. The corresponding values for `CCN(CC)C[C@@H]1CCCN1CC(=O)N1c2ccccc2C(=O)Nc2cccnc21` [H] are 4500 nM and 400 nM. On the same counts, the results for `CCN(CC)C[C@@H]1CCCN1CC(=O)N1c2ccccc2NC(=O)c2ccccc21` [I] are 800 nM and 90 nM.

For the molecule `CN(CC1CCCN(CC(=O)N2c3ccccc3C(=O)Nc3cccnc32)C1)C1CCCCC1` (centres unmarked) [L], the half-maximal inhibitory concentration (IC50) is 85 nM in series [4] and 19 nM in series [3].

With `CCN(CC)CC1CCCN(CC(=O)N2c3ccccc3NC(=O)c3ccccc32)C1` (centres unmarked) [M], the IC50 in series [4] amounted to 100 nM; in series [3], 35 nM. `CN(CC1CCCCN1CC(=O)N1c2ccccc2NC(=O)c2ccccc21)C1CCCCC1` (centres unmarked) [N]: the IC50 was 50 nM in series [4] and 13 nM in series [3]. On to `CN(CC1CCCN(CC(=O)N2c3ccccc3NC(=O)c3ccccc32)C1)C1CCCCC1` (centres unmarked) [O], for which the 50% inhibitory concentration (IC50) in series [4] stood at 20 nM; in series [3], 2.8 nM.

As to `CN1CCCC1C1CCCN(CC(=O)N2c3ccccc3NC(=O)c3ccccc32)C1` (centres unmarked) [P], the IC50 worked out at 120 nM in series [4] and 17 nM in series [3]. On the same counts, the results for `CCCCN(C)CC1CCCCN1CC(=O)N1c2ccccc2NC(=O)c2ccccc21` (centres unmarked) [Q] are 100 nM and 18 nM.

These data come from patent US4550107A, “Condensed diazepinones, their compositions and methods of use as pharmaceuticals” (Dr. Karl Thomae GmbH, priority 1984, dated 1985).
